According to publication PMC7524867, “Identification of Novel Inhibitors of a Plant Group A Protein Phosphatase Type 2C Using a Combined In Silico and Biochemical Approach” (Frontiers in Plant Science, 2020):

Legend:
Assay type in all cases: biochemical
ABI1 [1] = biological target: T1, ABI1 (Arabidopsis thaliana, UniProt P49597); assay: Ser/Thr phosphatase assay, single dose […]; design: recombinant His- or GST-tagged ABI1
T1 sequence (P49597 1-434): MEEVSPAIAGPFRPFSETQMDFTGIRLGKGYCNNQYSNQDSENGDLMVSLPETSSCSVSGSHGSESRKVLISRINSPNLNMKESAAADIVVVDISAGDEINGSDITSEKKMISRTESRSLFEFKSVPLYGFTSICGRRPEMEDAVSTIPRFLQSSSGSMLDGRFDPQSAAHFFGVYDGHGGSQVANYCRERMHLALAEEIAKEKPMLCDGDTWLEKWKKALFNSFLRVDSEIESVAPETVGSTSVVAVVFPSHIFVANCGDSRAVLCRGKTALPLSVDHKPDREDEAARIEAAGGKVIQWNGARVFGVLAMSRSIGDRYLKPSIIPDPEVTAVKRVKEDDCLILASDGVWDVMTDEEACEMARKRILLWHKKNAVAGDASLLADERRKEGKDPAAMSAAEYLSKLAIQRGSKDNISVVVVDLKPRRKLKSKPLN

ABI1 [2] = biological target: T1, ABI1; assay: Ser/Thr phosphatase assay, single dose […]; design: His-ABI1
ABI1 [3] = biological target: T1, ABI1; assay: Ser/Thr phosphatase assay (Promega) with phosphopeptide substrate, six-concentration IC50; design: recombinant His- or GST-tagged ABI1
ABI2 = biological target: T2, ABI2 (Arabidopsis thaliana, UniProt O04719); assay: Ser/Thr phosphatase assay at […] compound; weaker than on ABI1
T2 construct: recombinant His- or GST-tagged ABI2
T2 sequence (O04719 1-423): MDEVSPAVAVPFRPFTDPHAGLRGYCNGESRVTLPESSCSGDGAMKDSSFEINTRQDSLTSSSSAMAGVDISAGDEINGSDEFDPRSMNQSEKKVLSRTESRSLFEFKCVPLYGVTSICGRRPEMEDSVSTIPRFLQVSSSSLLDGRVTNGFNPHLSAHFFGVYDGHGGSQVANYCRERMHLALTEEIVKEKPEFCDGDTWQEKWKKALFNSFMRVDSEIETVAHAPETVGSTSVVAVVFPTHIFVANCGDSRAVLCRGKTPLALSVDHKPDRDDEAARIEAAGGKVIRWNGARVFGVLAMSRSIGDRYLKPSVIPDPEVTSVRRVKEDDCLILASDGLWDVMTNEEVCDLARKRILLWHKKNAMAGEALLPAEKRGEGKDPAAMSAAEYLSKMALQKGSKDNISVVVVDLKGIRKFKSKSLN

ZINC04545840
% inhibition at 100 μM (ABI1 [1]): 42.6

COc1cccc(-n2cc(C(=O)Nc3cc(C)ccc3OC)c3ccccc3c2=O)c1 [ZINC09438755]
Ser/Thr phosphatase assay, single dose 100 μM (ABI1 [2]): Only two molecules ZINC33009768 and ZINC09438755 were found to have significant inhibitory activity

NCCOc1cc(C(=O)Nc2cc(OCCN)c3ccccc3n2)nc(C(=O)Nc2cc(OCCN)c3ccccc3n2)c1 [ZINC59151964, 4-(2-aminoethoxy)-N2,N6-bis[4-(2-aminoethoxy)-2-quinolinyl]-2,6-pyridinedicarboxamide]
IC50 (ABI1 [3]): 54 ± 8 µM | Ser/Thr phosphatase assay at 100 μM compound; weaker than on ABI1 (ABI2): ZINC59151964 is more efficient against ABI1 than ABI2

COC(=O)c1ccccc1NC(=O)Nc1cc(NC(=O)c2ccc(F)cc2)ccc1N1CCCC1 [ZINC33009768]
Ser/Thr phosphatase assay, single dose 100 μM (ABI1 [2]): Only two molecules ZINC33009768 and ZINC09438755 were found to have significant inhibitory activity
